Results as given in patent publication US8420889B2, “Epicatechin glucosyltransferase” (priority 2008, dated 2013).

Tested on: recombinant UGT72L1-MBP
Assay: UGT72L1 glucosyltransferase assay with potential acceptor substrates and 14C-UDP-Glucose
Experimental: All assays were performed in triplicate for 1 hour at 30° C. along with boiled enzyme controls.
For studying pH optima, the buffers were 179 mM MES pH 5.0-7.0, and 179 mM Tris-HCl pH 7.0-9.0. Potential acceptor substrates were (−)-epicatechin, (−)-epigallocatechin, (+)-catechin, (+)-gallocatechin, procyanidins B1 and B2, cyanidin, dihydroquercetin, quercetin, kaemferol, apigenin, luteolin, liquiritigenin, daidzein and genistein (Sigma-Aldrich, St Louis, Mo.).

[1] = UDP-glucose as sugar donor, 0.1 mM acceptor substrate, 1 hour at 30° C., pH 7.5

Structure (SMILES) | activity for glucosylation (in words) [1] | further results
O=c1cc(-c2ccc(O)cc2)oc2cc(O)cc(O)c12 [apigenin] | not active | –
Oc1cc(O)c2c(c1)O[C@H](c1ccc(O)c(O)c1)[C@H](O)C2 [(−)-epicatechin] | – | Km (recombinant MBP-UGT72L1 fusion protein): 11.5 µM
O=C1c2c(O)cc(O)cc2O[C@H](c2ccc(O)c(O)c2)[C@H]1O [dihydroquercetin] | not active | –
Oc1cc(O)c2c(c1)O[C@H](c1cc(O)c(O)c(O)c1)[C@H](O)C2 [(−)-epigallocatechin] | – | activity for glucosylation, relative to the activity with epicatechin [1]: 27%
O=c1cc(-c2ccc(O)c(O)c2)oc2cc(O)cc(O)c12 [luteolin] | not active | –
O=c1c(O)c(-c2ccc(O)c(O)c2)oc2cc(O)cc(O)c12 [quercetin] | not active | –
O=c1c(-c2ccc(O)cc2)coc2cc(O)cc(O)c12 [genistein] | not active | –
